Patent US20060099712A1, “Correlation of anti-cancer activity of dyes with redox potentials” (Eastman Kodak Company, priority 2004, published 2006)
Where two headings read alike, the source gives them in different places.

Assays:
[1] = Octanol/water partition (log P); format: physicochemical; conditions: shaking with water and octanol
Excerpt: Octanol/water partition coefficients (log P) are usually used as a model of drug transport between water and the biophase, as disclosed in A. Leo, C. Hansch, Substituent Constants—for Correlation Analysis in Chemistry. and' Biology, Wiley, New York, 1979 and A. Leo, C. Hansch, D. Elkins, Chem. Rev., 6, 525 (1971), both incorporated herein by reference. Often partition coefficients can be measured simply by shaking the compound with a mixture of water and octanol and determining the concentration of the solute in either solvent. P is equal to the concentration of the solute in octanol divided by its concentration in water. In general, it is possible to measure log P values ranging from −4.0 to 6.0. The situation is also more complicated when the species is charged because of the effects of ion pairing.

[2] = test system: CX-1 Human Colon Carcinoma; assay: Clonogenic dye screening assay, CX-1 cells (IC50); format: cell-based; conditions: for CV/CX (selectivity, kill ratio): ratio of IC50 in normal CV-1 line to IC50 in carcinoma CX-1 line; for IC50: Homo sapiens; for Selectivity: Table 1, cell line not given, values equal CV/CX of Table II
Method in brief: (§1)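 Cells seeded 16-30 h ahead (2000 CX-1 or 1000 CV-1 per well), exposed to serially diluted dyes for 3 h at 37 °C, rinsed three times, then grown into colonies. Eight-point curves spanned 0.32-0.0015 μg/mL (CX-1) and 3.2-0.025 μg/mL (CV-1). IC50 is the concentration killing 50% of cells.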

[3] = In vivo tests (toxicity)
Excerpt: Benzothiazole is by far the next best.

[4] = Dye solubility (water, 5% dextrose/water); format: physicochemical; conditions: among compounds with enhanced activity
Excerpt: Dye solubility is also a factor, since compounds having low water solubility are difficult or impossible to include in in vivo testing.
S13 is one of the simplest cyanine dye structures possible (in this nomenclature the S refers to the sulfur, the 1 indicates one carbon on the nitrogen and 3 indicates a 3 methine chain). […] A synthetic challenge will be to enhance the activity/selectivity of this dye and retain its good water solubility. [drawing 23]

[5] = test system: CV-1 Normal Monkey Kidney Epithelial; assay: Clonogenic dye screening assay, CV-1 cells (IC50); format: cell-based, African green monkey; conditions: Primates
Method in brief: as §1

[6] = Table XXII; chain substituent steric parameter; cited from earlier work
[7] = Table XXII; chain substituent steric parameter; cited from earlier work; remark: listed apart in the source
[8] = Table XXII; chain substituent hydrophobicity parameter; cited from earlier work
[9] = Table XXII; chain substituent electronic parameter; cited from earlier work
[10] = Clonogenic dye screening assay, CX-1 cells (IC50); format: cell-based, human; conditions: Homo sapiens, CX-1, Table XII column 5; unit from method; read-out: CV (Table XII)
Method in brief: as §1

[11] = CX-1, 3 hrs treatment, colonies after 7-10 days, unit from method, read-out: CX (IC50 in the CX-1 cell line)
[12] = CV-1, 3 hrs treatment, colonies after 7-10 days, unit from method, read-out: CV (IC50 in the CV-1 cell line)

## CCN1C(=CC=Cc2sc3ccccc3[n+]2CC)Sc2ccccc21.[I-] [3,3′-diethylthiacarbocyanine iodide]
[1]
  octanol/water partition: partition completely into the octanol phase

## Indole
[2]
  CV/CX (selectivity, kill ratio): highest selectivity
[3]
  toxicity in vivo: high toxicity

## CN1/C(=C/C=C/c2sc3ccccc3[n+]2C)Sc2ccccc21 [Dye D-100]
[4]
  solubility: most desirably soluble
[2]; [11]
  IC50: 5 ng/mL
[2]; CX-1, Table XX, thiacarbocyanine nitrogen substituents, CX-1 cells, read-out: CX
  IC50: < 5 ng/mL
[2]
  Selectivity: 100
  CV/CX (selectivity, kill ratio): 100
[2]; Table XX, ratio given a value of 1 where dye inactive
  CV/CX: 100.0
[5]; [12]
  IC50: 0.5 µg/mL
[5]; CV-1, Table XX, thiacarbocyanine nitrogen substituents, CV-1 cells, read-out: CV
  IC50: 0.5 µg/mL
[6]
  B1: 1.00
  L: 2.06
[7]
  MR: 0.103
[8]
  π: 0.00
[9]
  F: 0.00
  R: 0.00
  σm: 0.00
  σp: 0.00

## CCN1/C(=C/C=C/c2sc3ccccc3[n+]2CC)Oc2ccccc21 [Dye D-104]
[10]
  IC50: 5 ng/mL
[2]; [11]
  IC50: 5 ng/mL
[2]; CX-1, Table XVI, unsymmetrical dyes, CX-1 cells, read-out: CX
  IC50: 5 ng/mL
[2]
  Selectivity: 200
  CV/CX (selectivity, kill ratio): 200
[2]; Table XVI, selectivity ratio of IC50 values
  CV/CX: 200.0
[5]; [12]
  IC50: 1 µg/mL
[5]; CV-1, Table XVI, unsymmetrical dyes, CV-1 cells, read-out: CV
  IC50: 1 µg/mL

## CCN1/C(=C/C=C/c2oc3ccc(-c4ccccc4)cc3[n+]2CC)Sc2ccccc21 [Dye D-131]
[10]
  IC50: < 5 ng/mL
[2]; [11]
  IC50: < 5 ng/mL
[5]; [12]
  IC50: 0.3 µg/mL
